Results reported in US20250107544A1, “4-(3-OXO-2-(PENT-2-ENYL)CYCLOPENTYL) BUTANOIC ACID MIXTURES AND USES THEREOF” (Valent BioSciences LLC., priority 2023, published 2025).

Key:
[1] = test system: unripened apples, Pink Lady variety; experiment: Apple coloration in Pink Lady variety (Example 1), percent red pixel area after foliar spray; type: in vivo; details: for Average % Red Pixel Area: 34 hours post spray; for % change from control: vs 0.05% Regulaid control
Source text: 10 sets of unripened apples, Pink Lady variety, harvested three weeks before the normal harvest date, were each foliar sprayed with either 1) 0.05% Regulaid® as a control, 2) 30 ppm OPC4, 3) 100 ppm OPC4, 4) 300 ppm OPC4, 5) 1,000 ppm OPC4, 6) 50 ppm ACC, 7) 50 ppm jasmonic acid, 8) a mixture of 30 ppm OPC4 and 50 ppm ACC, 9) a mixture of 100 ppm OPC4 and 50 ppm ACC, 10) a mixture of 300 ppm OPC4 and 50 ppm ACC, 11) a mixture of 1,000 ppm OPC4 and 50 ppm ACC, 12) a mixture of 30 ppm OPC4 and 50 ppm jasmonic acid, 13) a mixture of 100 ppm OPC4 and 50 ppm jasmonic acid, 14) a mixture of 300 ppm OPC4 and 50 ppm jasmonic acid, 15) a mixture of 1,000 ppm OPC4 and 50 ppm jasmonic acid. 34 hours post spray application percent red pixel area (shaded) was measured. Percent red pixel area is an indication of the coloration of the apple fruit.
(§1) To determine if the mixture provided unexpected results, the observed combined efficacy (“OCE”) was divided by the expected combined efficacy (“ECE”) wherein the ECE is calculated by the Abbott method: […]
(§2) wherein ECE is the expected combined efficacy and in which A and B are the percent change from control given by the single active ingredients. If the ratio between the OCE of the mixture and the ECE of the mixture is greater than 1, then greater than expected interactions are present in the mixture. (Gisi, Synergistic Interaction of Fungicides in Mixtures, The American Phytopathological Society, 86:11, 1273-1279,1996).

[2] = test system: unripened apples, Pink Lady variety; experiment: Apple coloration in Pink Lady variety (Example 2), percent red pixel area after foliar spray; type: in vivo; details: for Average % Red Pixel Area: 34 hours post spray; for % change from control: vs 0.05% Regulaid control
Procedure: as §1, §2
10 sets of unripened apples, Pink Lady variety, harvested three weeks before the normal harvest date, were each foliar sprayed with either 1) 0.05% Regulaid® as a control, 2) 10 ppm OPC4, 3) 100 ppm OPC4, 4) 100 ppm ACC, 5) 100 ppm jasmonic acid, 6) a mixture of 10 ppm OPC4 and 100 ppm ACC, 7) a mixture of 100 ppm OPC4 and 100 ppm ACC, 8) a mixture of 10 ppm OPC4 and 100 ppm jasmonic acid and 9) a mixture of 100 ppm OPC4 and 100 ppm jasmonic acid. 34 hours post spray application percent red pixel area (shaded) was measured. Percent red pixel area is an indication of the coloration of the apple fruit.

Structure (SMILES)	Average % Red Pixel Area ([1]; 50 ppm foliar spray) [%]	% change from control ([1]; 50 ppm foliar spray) [%]	Average % Red Pixel Area ([2]; 100 ppm foliar spray) [%]	% change from control ([2]; 100 ppm foliar spray) [%]	Average % Red Pixel Area ([1]; 30 ppm foliar spray) [%]	% change from control ([1]; 30 ppm foliar spray) [%]	Average % Red Pixel Area ([1]; 100 ppm foliar spray) [%]	% change from control ([1]; 100 ppm foliar spray) [%]	Average % Red Pixel Area ([1]; 300 ppm foliar spray) [%]	% change from control ([1]; 300 ppm foliar spray) [%]	Average % Red Pixel Area ([1]; 1000 ppm foliar spray) [%]	% change from control ([1]; 1000 ppm foliar spray) [%]	Average % Red Pixel Area ([2]; 10 ppm foliar spray) [%]	% change from control ([2]; 10 ppm foliar spray) [%]
NC1(C(=O)O)CC1 [ACC, 1-amino-1-cyclopropanecarboxylic acid, reference compound]	9.33	0.23	19.32	−0.20	–	–	–	–	–	–	–	–	–	–
CC/C=C\C[C@H]1C(=O)CC[C@@H]1CC(=O)O [JA, jasmonic acid, reference compound]	39.64	4.22	49.9	1.06	–	–	–	–	–	–	–	–	–	–
CCC=CCC1C(=O)CCC1CCCC(=O)O (centres unmarked) [OPC4, 4-(3-oxo-2-(pent-2-enyl)cyclopentyl) butanoic acid]	–	–	43.59	0.80	13.37	0.76	36.02	3.74	65.59	7.63	54.35	6.15	18.85	−0.22
